This is an account of results in ChEMBL document CHEMBL5055642, “Strobiloscyphones A-F, 6-Isopentylsphaeropsidones and Other Metabolites from Strobiloscypha sp. AZ0266, a Leaf-Associated Fungus of Douglas Fir” (J Nat Prod, 2021).

In general, IC50 refers to the point on the concentration scale where inhibition reaches its midpoint. As usually defined, the inhibition is the drop in the measured response relative to a control, in per cent. Usually MBC stands for the lowest tested concentration that kills the bacteria rather than only halting them. For orientation: MIC means the least concentration at which growth counts as inhibited. As usually defined, the MFC is the lowest tested concentration that kills the fungus rather than only halting it.

The subject of data set [1] is PC-3M. In words: Cytotoxicity against human PC-3M cells assessed as inhibition of cell proliferation up to 10 uM measured after 72 hrs by resazurin dye based AlamarBlue assay. Format: functional.
Data set [2] relates to NCI-H460. In words: Cytotoxicity against human NCI-H460 cells assessed as inhibition of cell proliferation up to 10 uM measured after 72 hrs by resazurin dye based AlamarBlue assay. Format: functional. Background: Alamar Blue is a resazurin reagent that responds to reducing activity.
Data set [3] has as its system SF-268. In words: Cytotoxicity against human SF-268 cells assessed as inhibition of cell proliferation up to 10 uM measured after 72 hrs by resazurin dye based AlamarBlue assay. The class given is functional.
In data set [4] the test system is MCF7. In words: Cytotoxicity against human MCF7 cells assessed as inhibition of cell proliferation up to 10 uM measured after 72 hrs by resazurin dye based AlamarBlue assay. Format: functional.
The test system of data set [5] is MDA-MB-231. Kind of data set: Cytotoxicity against human MDA-MB-231 cells assessed as inhibition of cell proliferation up to 10 uM measured after 72 hrs by resazurin dye based AlamarBlue assay. The class given is functional.
Data set [6] concerns WI-38. In words: Cytotoxicity against human WI-38 cells assessed as inhibition of cell proliferation up to 10 uM measured after 72 hrs by resazurin dye based AlamarBlue assay. Conditions: wi-38, 72 h.
For data set [7], the system named is SF-268. Kind of data set: Cytotoxicity against human SF-268 cells assessed as inhibition of cell proliferation measured after 72 hrs by resazurin dye based AlamarBlue assay. The class given is functional. Conditions: SF-268, 72 h.
The subject of data set [8] is MCF7. In words: Cytotoxicity against human MCF7 cells assessed as inhibition of cell proliferation measured after 72 hrs by resazurin dye based AlamarBlue assay. The class given is functional. Conditions: MCF7, 72 h.
For data set [9], the system named is WI-38. In words: Cytotoxicity against human WI-38 cells assessed as inhibition of cell proliferation measured after 72 hrs by resazurin dye based AlamarBlue assay. As to conditions: WI-38, 72 h.
Data set [10] has as its system PC-3M. In words: Cytotoxicity against human PC-3M cells assessed as inhibition of cell proliferation measured after 72 hrs by resazurin dye based AlamarBlue assay. The class given is functional.
The subject of data set [11] is NCI-H460. In words: Cytotoxicity against human NCI-H460 cells assessed as inhibition of cell proliferation measured after 72 hrs by resazurin dye based AlamarBlue assay. Conditions: NCI-H460, 72 h. Format: functional.
Data set [12] relates to MDA-MB-231. Kind of data set: Cytotoxicity against human MDA-MB-231 cells assessed as inhibition of cell proliferation measured after 72 hrs by resazurin dye based AlamarBlue assay. Conditions: MDA-MB-231, 72 h. The class given is functional.
Data set [13] concerns Candida albicans. In words: Antifungal activity against Candida albicans ATCC 10261 assessed as inhibition of fungal growth at 100 ug/ml incubated for 24 hrs by CLSI method relative to control. The class given is functional.
The test system of data set [14] is Candida albicans. Kind of data set: Antifungal activity against Candida albicans ATCC 10261 assessed as inhibition of fungal growth at 50 ug/ml incubated for 24 hrs by CLSI method relative to control. The class given is functional.
The test system of data set [15] is Escherichia coli. Kind of data set: Antibacterial activity against Escherichia coli ATCC 25922 assessed as inhibition of bacterial growth incubated for 24 hrs by CLSI method. Format: functional.
The test system of data set [16] is Pseudomonas aeruginosa. Kind of data set: Antibacterial activity against Pseudomonas aeruginosa ATCC 10197 assessed as inhibition of bacterial growth incubated for 24 hrs by CLSI method. Format: functional.
In data set [17] the test system is Staphylococcus aureus. Kind of data set: Antibacterial activity against Staphylococcus aureus ATCC 25923 assessed as inhibition of bacterial growth incubated for 24 hrs by CLSI method. Format: functional.
The subject of data set [18] is Candida albicans. In words: Antifungal activity against Candida albicans ATCC 10261 assessed as inhibition of fungus growth incubated for 24 hrs by CLSI method. Format: functional.
The subject of data set [19] is Pseudomonas aeruginosa. In words: Antibacterial activity against Pseudomonas aeruginosa ATCC 10197 assessed as inhibition of bacterial growth at 25 ug/ml incubated for 24 hrs by CLSI method relative to control. The class given is functional.
The test system of data set [20] is Escherichia coli. Kind of data set: Antibacterial activity against Escherichia coli ATCC 25922 assessed as inhibition of bacterial growth at 12.5 ug/ml incubated for 24 hrs by CLSI method relative to control. The class given is functional.
The subject of data set [21] is Candida albicans. Kind of data set: Antifungal activity against Candida albicans ATCC 10261 assessed as inhibition of fungal growth at 12.5 ug/ml incubated for 24 hrs by CLSI method relative to control. Format: functional.
The subject of data set [22] is Candida albicans. In words: Antifungal activity against Candida albicans ATCC 10261 assessed as inhibition of fungal growth at 6.25 ug/ml incubated for 24 hrs by CLSI method relative to control. The class given is functional.

Converted amounts (≈) assume the structure as drawn. The source made the active and inactive calls. No cut-off for these calls is given here.

As to `CCCCCCC(=O)C(O)C(O)/C=C/C=C/C=C\C(=O)O` (configuration not stated), the result in data set [1], in [2], in data set [3], in data set [4] and in data set [5] was inactive. Besides, the Activity result in data set [6] was “Non-Toxic”.
In the case of `COC1=CC(=O)[C@@](O)([C@@H](C=C(C)C)OC(C)=O)CC1=O`, the outcome in data set [1], in data set [2], in data set [3], in data set [4] and in data set [5] was inactive. Moreover, in [6], the Activity result is reported as “Non-Toxic”.
Regarding `COC1=C[C@@H](O)[C@H]2O[C@H]2C1=O`, the IC50 came out at 1700 nM in data set [7], 1600 nM in data set [8] and 3800 nM in [9].
For the compound `COC1=CC(=O)[C@](O)([C@H](C=C(C)C)OC(C)=O)C[C@H]1O`, the result in data set [1], in data set [2], in data set [3], in [4] and in data set [5] was inactive. Also, the Activity result in data set [6] is “Non-Toxic”.
Take `COC1=CC(=O)[C@@]2([C@@H](O)C=C(C)C)O[C@H]2[C@H]1O`: the result in data set [1], in data set [2], in data set [3], in data set [4] and in data set [5] was inactive. For the same compound, in data set [6], the Activity result is on record as “Non-Toxic”.
With `COc1cccc2c1C(=O)c1c(O)c3c(c(O)c1C2=O)C[C@@](O)(C(=O)CO)C[C@@H]3O[C@H]1C[C@H](N)[C@H](O)[C@H](C)O1` [DOXORUBICIN], the results for the IC50 in data set [10], in [11] and in data set [12] were 300 nM, 100 nM and 700 nM, respectively.
Turning to `COC1=CC(=O)C(O)(C(O)CC(C)(C)O)C[C@H]1O` (some centres not stated), the outcome in [1], in data set [2], in data set [3], in [4] and in [5] was inactive. The Activity result in data set [6] is “Non-Toxic”.
For `COC1=CC(=O)[C@@]2([C@H](O)C=C(C)C)O[C@H]2C1=O`, the IC50 is 4600 nM in data set [10]; 4800 nM in data set [11]; 1300 nM in data set [7]; 1600 nM in data set [8]; 2600 nM in [12]; 8300 nM in data set [9].
In the case of `COC1=CC(=O)[C@H]2O[C@H]2[C@H]1O`, the outcome in data set [1], in [2], in [3], in data set [4] and in [5] was inactive. Also, the Activity result in [6] is listed as “Non-Toxic”. Besides, in [13], the inhibition at 100 µg/mL stood at 75%. Further, in data set [14], the inhibition at 50 µg/mL amounted to 50%.
With `COC1=CC(=O)[C@H]2O[C@H]2C1=O`, the IC50 was found to be 2500 nM in [10]; 2500 nM in data set [11]; 1200 nM in data set [7]; 1400 nM in [8]; 2200 nM in data set [12]; 7800 nM in data set [9]. Further, in [15], the MBC was 25 µg/mL (≈ 162 µM). The MIC in data set [15], in [16], in data set [17] and in data set [18] was 25 µg/mL (≈ 162 µM) in each case. Moreover, the MFC in data set [18] turned out to be 25 µg/mL (≈ 162 µM). Also, in data set [19], the inhibition at 25 µg/mL was determined as 50%. The inhibition at 12.5 µg/mL in data set [20] and in [21] was 75% each time. In data set [22], the inhibition at 6.25 µg/mL was found to be 50%.
On to `COC1=CC(=O)[C@@]2([C@H](C=C(C)C)OC(C)=O)O[C@]3(OC)CC(=O)[C@H]4O[C@H]4[C@]3(O)[C@H]2C1=O`, for which the IC50 was 6000 nM in data set [10], 2700 nM in data set [7], 2900 nM in [8] and 6000 nM in data set [12]. In data set [2], the result was inactive. The Activity entry in data set [6] was “Non-Toxic”.
